Experimental data from US12466812B2, “Pyridinyltriazine derivative having protein kinase inhibitory activity, and pharmaceutical composition for preventing, ameliorating, or treating cancer comprising same” (KOREA INSTITUTE OF SCIENCE AND TECHNOLOGY, priority 2019, dated 2025).

Legend:
CDK4 = CDK4 (Homo sapiens, UniProt P11802); experiment: Kinase panel biochemical assay; conditions: single concentration of 1 μM; panel of 369 kinases; read-out: kinase activity inhibited (%), CDK4
Description: (§1) In order to measure the inhibitory activity (%) against protein kinases of the compounds of the present invention, biochemical assays were performed on a full kinase panel composed of 369 kinases.

CDK6 = CDK6 (Homo sapiens, UniProt Q00534); experiment: Kinase panel biochemical assay; conditions: single concentration of 1 μM; panel of 369 kinases; read-out: kinase activity inhibited (%), CDK6
Description: as §1

CLK2 = CLK2 (Homo sapiens, UniProt P49760); experiment: Kinase panel biochemical assay; conditions: single concentration of 1 μM; panel of 369 kinases; read-out: kinase activity inhibited (%), CLK2
Description: as §1

DDR1 = DDR1 (Homo sapiens, UniProt Q08345); experiment: Kinase panel biochemical assay; conditions: single concentration of 1 μM; panel of 369 kinases; read-out: kinase activity inhibited (%), DDR1
Description: as §1

FGFR2 = FGFR2 (Homo sapiens, UniProt P21802); experiment: Kinase panel biochemical assay; conditions: single concentration of 1 μM; panel of 369 kinases; read-out: kinase activity inhibited (%), FGFR2
Description: as §1

FGFR3 = FGFR3 (Homo sapiens, UniProt P22607); experiment: Kinase panel biochemical assay; conditions: single concentration of 1 μM; panel of 369 kinases; read-out: kinase activity inhibited (%), FGFR3
Description: as §1

FGFR4 = FGFR4 (Homo sapiens, UniProt P22455); experiment: Kinase panel biochemical assay; conditions: single concentration of 1 μM; panel of 369 kinases; read-out: kinase activity inhibited (%), FGFR4
Description: as §1

FMS = FMS (Homo sapiens, UniProt P07333); experiment: Kinase panel biochemical assay; conditions: single concentration of 1 μM; panel of 369 kinases; read-out: kinase activity inhibited (%), FMS
Description: as §1

IRAK1 = IRAK1 (Homo sapiens, UniProt P51617); experiment: Kinase panel biochemical assay; conditions: single concentration of 1 μM; panel of 369 kinases; read-out: kinase activity inhibited (%), IRAK1
Description: as §1

LCK = LCK (Homo sapiens, UniProt P06239); experiment: Kinase panel biochemical assay; conditions: single concentration of 1 μM; panel of 369 kinases; read-out: kinase activity inhibited (%), LCK
Description: as §1

LYN = LYN (Homo sapiens, UniProt P07948); experiment: Kinase panel biochemical assay; conditions: single concentration of 1 μM; panel of 369 kinases; read-out: kinase activity inhibited (%), LYN
Description: as §1

MAK = MAK (Homo sapiens, UniProt P20794); experiment: Kinase panel biochemical assay; conditions: single concentration of 1 μM; panel of 369 kinases; read-out: kinase activity inhibited (%), MAK
Description: as §1

MPSK1 = MPSK1 (Homo sapiens, UniProt O75716); experiment: Kinase panel biochemical assay; conditions: single concentration of 1 μM; panel of 369 kinases; read-out: kinase activity inhibited (%), MPSK1
Description: as §1

PCTAIRE1 = PCTAIRE1 (Homo sapiens, UniProt Q00536); experiment: Kinase panel biochemical assay; conditions: single concentration of 1 μM; panel of 369 kinases; read-out: kinase activity inhibited (%), PCTAIRE1
Description: as §1

PCTAIRE2 = PCTAIRE2 (Homo sapiens, UniProt Q00537); experiment: Kinase panel biochemical assay; conditions: single concentration of 1 μM; panel of 369 kinases; read-out: kinase activity inhibited (%), PCTAIRE2
Description: as §1

PHKg1 = PHKg1 (Homo sapiens, UniProt Q16816); experiment: Kinase panel biochemical assay; conditions: single concentration of 1 μM; panel of 369 kinases; read-out: kinase activity inhibited (%), PHKg1
Description: as §1

ROS = ROS (Homo sapiens, UniProt P08922); experiment: Kinase panel biochemical assay; conditions: single concentration of 1 μM; panel of 369 kinases; read-out: kinase activity inhibited (%), ROS
Description: as §1

TAO2 = TAO2 (Homo sapiens, UniProt Q9UL54); experiment: Kinase panel biochemical assay; conditions: single concentration of 1 μM; panel of 369 kinases; read-out: kinase activity inhibited (%), TAO2
Description: as §1

CYP2C19 = CYP2C19 (Homo sapiens, UniProt P33261); experiment: Inhibitory activity against CYP metabolic enzyme; assay type: in vitro ADME
Description: (§2) In order to determine whether or not there is a possibility that the compounds synthesized in Examples 1, 22, and 24 of the present invention can cause side effects of drug interaction, the rate (%) of inhibition against 5 major metabolic enzymes (CYP1A2, CYP2C9, CYP2C19, CYP2D6, and CYP3A4) among CYPs (cytochrome P450), which are enzymes involved in oxidative metabolism of drugs, was measured. […] That is, it can be seen that the compound of the present invention has a low possibility of causing side effects of drug interaction.

CYP2C9 = CYP2C9 (Homo sapiens, UniProt P11712); experiment: Inhibitory activity against CYP metabolic enzyme; assay type: in vitro ADME
Description: as §2

CYP2D6 = CYP2D6 (Homo sapiens, UniProt P10635); experiment: Inhibitory activity against CYP metabolic enzyme; assay type: in vitro ADME
Description: as §2

[1] = test system: UMUC3, bladder cancer cell line overexpressing FGFR1 (xenograft); experiment: In-vivo efficacy in animal model transplanted with bladder cancer cell line; conditions: UMUC3 xenograft in BALB/C nude mice, oral 20 mpk once a day, compared to control drug BGJ398
Text: Specifically, 6-7 week old BALB/C nude mice xenografted with UMUC3, which was a bladder cancer cell line overexpressing FGFR1, were used as an animal model. BGJ398 (manufactured by Novartis), a known FGFR inhibitor, was used as a control drug. A mixed solution (pH=4) of 5% N-methylpyrrolidinone (NMP), 6% Solutol, 20% polyethylene glycol (PEG400), and 69′% distilled water was used as a vehicle. At this time, the drug was orally administered at a concentration of 20 mpk (mg/kg) once a day.

Chain of LYN (P07948 whole entry): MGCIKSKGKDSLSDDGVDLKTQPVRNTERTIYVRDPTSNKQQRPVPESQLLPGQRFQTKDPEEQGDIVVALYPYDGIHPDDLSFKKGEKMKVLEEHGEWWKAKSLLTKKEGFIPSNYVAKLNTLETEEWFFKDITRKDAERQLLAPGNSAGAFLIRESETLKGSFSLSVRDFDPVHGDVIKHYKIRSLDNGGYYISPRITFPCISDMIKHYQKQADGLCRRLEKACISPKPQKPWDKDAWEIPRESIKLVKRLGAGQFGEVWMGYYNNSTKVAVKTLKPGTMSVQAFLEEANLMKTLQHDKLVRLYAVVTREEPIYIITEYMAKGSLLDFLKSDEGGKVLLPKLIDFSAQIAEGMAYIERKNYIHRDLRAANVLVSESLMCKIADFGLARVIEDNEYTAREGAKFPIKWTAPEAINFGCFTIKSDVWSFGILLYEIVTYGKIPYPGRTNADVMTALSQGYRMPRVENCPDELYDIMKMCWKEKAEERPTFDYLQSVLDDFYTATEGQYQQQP
Chain of FGFR3 (P22607 23-806): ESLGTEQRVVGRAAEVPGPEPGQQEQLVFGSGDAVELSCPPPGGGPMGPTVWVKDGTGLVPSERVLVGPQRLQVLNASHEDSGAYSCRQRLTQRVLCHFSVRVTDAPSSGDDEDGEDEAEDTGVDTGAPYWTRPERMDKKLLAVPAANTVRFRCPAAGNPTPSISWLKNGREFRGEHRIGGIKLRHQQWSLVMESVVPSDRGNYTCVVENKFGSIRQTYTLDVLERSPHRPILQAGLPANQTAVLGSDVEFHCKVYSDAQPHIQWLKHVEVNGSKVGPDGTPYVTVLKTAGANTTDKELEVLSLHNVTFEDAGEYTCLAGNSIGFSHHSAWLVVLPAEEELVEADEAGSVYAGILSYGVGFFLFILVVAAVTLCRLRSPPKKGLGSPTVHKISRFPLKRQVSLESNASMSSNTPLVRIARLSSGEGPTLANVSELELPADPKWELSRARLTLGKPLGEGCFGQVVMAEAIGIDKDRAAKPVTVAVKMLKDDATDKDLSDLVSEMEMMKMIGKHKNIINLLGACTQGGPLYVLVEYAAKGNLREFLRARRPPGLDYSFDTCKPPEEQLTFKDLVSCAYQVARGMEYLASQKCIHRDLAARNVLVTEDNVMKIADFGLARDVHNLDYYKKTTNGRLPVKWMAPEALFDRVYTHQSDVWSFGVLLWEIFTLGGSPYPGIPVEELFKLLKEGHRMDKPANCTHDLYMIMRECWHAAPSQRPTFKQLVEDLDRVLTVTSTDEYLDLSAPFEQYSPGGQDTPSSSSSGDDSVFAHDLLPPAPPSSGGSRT
Chain of DDR1 (Q08345 19-913): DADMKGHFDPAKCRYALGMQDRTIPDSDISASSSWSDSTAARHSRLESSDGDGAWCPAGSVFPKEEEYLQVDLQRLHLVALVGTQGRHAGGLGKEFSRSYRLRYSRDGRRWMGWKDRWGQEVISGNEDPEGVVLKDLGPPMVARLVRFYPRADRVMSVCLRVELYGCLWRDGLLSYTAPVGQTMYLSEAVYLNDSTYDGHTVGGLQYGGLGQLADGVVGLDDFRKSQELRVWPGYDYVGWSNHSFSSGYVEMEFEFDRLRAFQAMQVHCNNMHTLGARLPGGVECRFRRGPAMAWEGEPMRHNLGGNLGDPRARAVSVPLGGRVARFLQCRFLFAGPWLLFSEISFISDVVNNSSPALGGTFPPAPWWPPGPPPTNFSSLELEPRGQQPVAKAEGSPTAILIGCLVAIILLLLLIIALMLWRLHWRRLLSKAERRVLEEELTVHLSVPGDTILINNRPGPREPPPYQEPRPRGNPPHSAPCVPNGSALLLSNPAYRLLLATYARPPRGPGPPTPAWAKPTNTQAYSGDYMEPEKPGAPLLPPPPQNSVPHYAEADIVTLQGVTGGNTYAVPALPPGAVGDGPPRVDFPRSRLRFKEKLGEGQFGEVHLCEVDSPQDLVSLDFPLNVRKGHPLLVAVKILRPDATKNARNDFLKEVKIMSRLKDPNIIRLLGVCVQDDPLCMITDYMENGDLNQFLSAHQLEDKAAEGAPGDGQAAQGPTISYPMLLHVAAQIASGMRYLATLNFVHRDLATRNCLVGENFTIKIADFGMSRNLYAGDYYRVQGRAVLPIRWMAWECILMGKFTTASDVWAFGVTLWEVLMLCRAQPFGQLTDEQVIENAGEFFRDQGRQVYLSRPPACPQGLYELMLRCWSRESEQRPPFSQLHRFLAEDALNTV
Chain of CYP2D6 (P10635 whole entry): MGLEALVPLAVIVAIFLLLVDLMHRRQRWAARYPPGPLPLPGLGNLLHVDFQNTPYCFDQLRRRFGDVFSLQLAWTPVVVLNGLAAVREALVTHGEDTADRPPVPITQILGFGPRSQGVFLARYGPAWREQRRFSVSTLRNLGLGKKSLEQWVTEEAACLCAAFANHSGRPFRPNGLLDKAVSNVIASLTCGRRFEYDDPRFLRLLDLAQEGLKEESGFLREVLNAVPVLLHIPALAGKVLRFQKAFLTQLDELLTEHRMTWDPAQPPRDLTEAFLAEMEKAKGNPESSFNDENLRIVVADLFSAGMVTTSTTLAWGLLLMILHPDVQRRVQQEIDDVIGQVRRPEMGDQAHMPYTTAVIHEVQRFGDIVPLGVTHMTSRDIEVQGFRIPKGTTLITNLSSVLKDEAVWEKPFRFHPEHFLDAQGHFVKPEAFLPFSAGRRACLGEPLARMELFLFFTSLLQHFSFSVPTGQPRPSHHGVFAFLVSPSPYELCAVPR
Chain of IRAK1 (P51617 whole entry): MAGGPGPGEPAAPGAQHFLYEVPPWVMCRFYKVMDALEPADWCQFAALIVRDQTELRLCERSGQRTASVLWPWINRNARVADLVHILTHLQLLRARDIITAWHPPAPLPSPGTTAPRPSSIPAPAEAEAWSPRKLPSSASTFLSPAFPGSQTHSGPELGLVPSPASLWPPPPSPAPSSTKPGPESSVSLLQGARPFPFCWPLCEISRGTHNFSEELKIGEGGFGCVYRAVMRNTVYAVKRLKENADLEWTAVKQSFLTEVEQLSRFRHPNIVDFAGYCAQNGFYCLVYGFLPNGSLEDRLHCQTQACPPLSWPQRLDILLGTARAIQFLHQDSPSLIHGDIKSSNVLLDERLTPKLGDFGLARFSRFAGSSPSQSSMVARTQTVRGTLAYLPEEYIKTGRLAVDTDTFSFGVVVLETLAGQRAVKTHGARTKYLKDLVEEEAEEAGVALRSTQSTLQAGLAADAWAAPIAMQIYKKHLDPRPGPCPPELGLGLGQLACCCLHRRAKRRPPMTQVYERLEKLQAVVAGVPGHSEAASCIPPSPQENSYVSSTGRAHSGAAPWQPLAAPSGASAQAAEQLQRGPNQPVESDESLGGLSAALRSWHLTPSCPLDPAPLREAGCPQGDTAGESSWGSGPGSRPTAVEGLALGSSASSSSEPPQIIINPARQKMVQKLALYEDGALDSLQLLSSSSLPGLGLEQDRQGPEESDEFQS
Chain of MPSK1 (O75716 whole entry): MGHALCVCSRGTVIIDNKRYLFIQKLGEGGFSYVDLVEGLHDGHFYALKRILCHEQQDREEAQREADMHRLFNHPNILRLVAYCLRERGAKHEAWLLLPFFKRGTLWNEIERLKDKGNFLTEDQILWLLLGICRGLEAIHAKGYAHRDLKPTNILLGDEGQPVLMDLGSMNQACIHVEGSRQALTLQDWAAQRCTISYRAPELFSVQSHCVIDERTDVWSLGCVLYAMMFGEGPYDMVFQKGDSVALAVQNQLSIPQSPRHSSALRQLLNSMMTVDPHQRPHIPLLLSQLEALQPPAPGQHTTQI
Chain of FGFR4 (P22455 22-802): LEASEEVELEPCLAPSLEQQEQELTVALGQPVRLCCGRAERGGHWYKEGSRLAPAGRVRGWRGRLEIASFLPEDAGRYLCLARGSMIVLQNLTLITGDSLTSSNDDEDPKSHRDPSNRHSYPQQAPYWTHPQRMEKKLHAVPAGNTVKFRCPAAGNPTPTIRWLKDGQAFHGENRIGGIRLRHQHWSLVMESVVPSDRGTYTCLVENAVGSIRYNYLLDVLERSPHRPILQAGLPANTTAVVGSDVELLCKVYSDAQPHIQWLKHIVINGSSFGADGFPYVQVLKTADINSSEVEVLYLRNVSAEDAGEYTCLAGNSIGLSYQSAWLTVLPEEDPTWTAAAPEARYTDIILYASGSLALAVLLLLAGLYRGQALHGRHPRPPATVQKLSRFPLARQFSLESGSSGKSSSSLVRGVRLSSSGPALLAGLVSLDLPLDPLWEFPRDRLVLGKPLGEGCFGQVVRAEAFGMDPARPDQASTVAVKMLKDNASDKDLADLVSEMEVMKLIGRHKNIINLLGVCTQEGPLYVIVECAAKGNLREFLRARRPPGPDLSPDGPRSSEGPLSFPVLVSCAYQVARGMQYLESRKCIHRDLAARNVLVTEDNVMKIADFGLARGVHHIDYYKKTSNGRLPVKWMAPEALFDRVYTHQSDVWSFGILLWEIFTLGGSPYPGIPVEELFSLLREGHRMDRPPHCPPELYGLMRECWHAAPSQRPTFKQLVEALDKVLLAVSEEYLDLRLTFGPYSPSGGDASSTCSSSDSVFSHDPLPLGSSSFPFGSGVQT
Chain of CLK2 (P49760 whole entry): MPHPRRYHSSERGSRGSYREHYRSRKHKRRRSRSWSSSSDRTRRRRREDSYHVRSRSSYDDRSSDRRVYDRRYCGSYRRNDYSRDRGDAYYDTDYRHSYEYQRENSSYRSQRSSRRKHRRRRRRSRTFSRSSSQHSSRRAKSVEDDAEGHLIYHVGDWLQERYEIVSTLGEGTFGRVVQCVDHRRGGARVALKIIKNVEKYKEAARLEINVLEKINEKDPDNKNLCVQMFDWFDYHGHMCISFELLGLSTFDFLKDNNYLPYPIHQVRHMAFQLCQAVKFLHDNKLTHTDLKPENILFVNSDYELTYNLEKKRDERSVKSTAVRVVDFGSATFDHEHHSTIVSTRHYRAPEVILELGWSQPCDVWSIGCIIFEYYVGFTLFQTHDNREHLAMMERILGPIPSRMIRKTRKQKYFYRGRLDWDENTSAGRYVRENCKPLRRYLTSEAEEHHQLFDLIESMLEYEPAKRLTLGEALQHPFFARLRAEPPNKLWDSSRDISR

inhibition at 1 µM (CDK4): ≥ 90% | inhibition at 1 µM (CDK6): ≥ 90% | inhibition at 1 µM (CLK2): ≥ 90% | inhibition at 1 µM (DDR1): ≥ 90% | inhibition at 1 µM (FGFR2): ≥ 90% | inhibition at 1 µM (FGFR3): ≥ 90% | inhibition at 1 µM (FGFR4): ≥ 90% | inhibition at 1 µM (FMS): ≥ 90% | inhibition at 1 µM (IRAK1): ≥ 90% | inhibition at 1 µM (LCK): ≥ 90% | inhibition at 1 µM (LYN): ≥ 90% | inhibition at 1 µM (MAK): ≥ 90% | inhibition at 1 µM (MPSK1): ≥ 90% | inhibition at 1 µM (PCTAIRE1): ≥ 90% | inhibition at 1 µM (PCTAIRE2): ≥ 90% | inhibition at 1 µM (PHKg1): ≥ 90% | inhibition at 1 µM (ROS): ≥ 90% | inhibition at 1 µM (TAO2): ≥ 90% | rate (%) of inhibition, CYP2C19 (CYP2C19): 26.7% | rate (%) of inhibition, CYP2C9 (CYP2C9): 70.2% | rate (%) of inhibition, CYP2D6 (CYP2D6): 80.9%
Compound: CCN1CCN(c2ccc(Nc3ncnc(-c4cccnc4Nc4c(Cl)c(OC)cc(OC)c4Cl)n3)cc2)CC1 [Example 1]
tumor volume reduction effect [1]: excellent tumor volume reduction effect
